According to US12187624B2, “Method of acylating amino acids and uses of N-acyl amino acid products” (NewSouth Innovations Pty Limited, priority 2019, dated 2025):
Values joined by “and” are separate entries in the source; they are usually repeats but may differ in a detail not shown here. Identical values can stand only once.

How the values were obtained:
[1] = Ion flotation of Cd solution in air bubble column, ICP-MS analysis; conditions: Csurfactant = 0.01M
Experimental: (§1) In a model experiment, 0.01M of the N-octanoyl-cys surfactant was dissolved (with heating around 65° C. while stirring) in a 5 mg L^−1 solution (i.e. 5 ppm) of Cd containing 0.1 M NaOH and finally made up to 100 ml using Milli-Q water, with the pH of around 8.
(§2) The solution was then poured into a column (with 30 cm height and 3 cm diameter) while a 2 L/min flow of air gas was passed through it with air pump (Hiblow HP40, Philippines). Two samples were taken after each of 30 and 60 minutes from around 2 cm top of the sinter, and the Cd concentrations of each sample was determined by ICP-MS analysis. The upper-outlet foam was also collected in a waste container using an outlet tube.
The same procedure was used with the N-octyl-cys surfactant in the flotation experiment, but where the pH of the solution was increased to 12, to enable this surfactant to successfully produce a foam (this difference is discussed later).

[2] = Ion flotation of calcium solution in air bubble column, ICP-MS analysis
Experimental: as §1, §2
In the second series of ion flotation experiments, N-octanoyl-cys surfactant (obtained by Exemplary method 1) was used for removing calcium ions using air in the ion flotation process.

[3] = Foaming test of surfactant solutions at different pH; assay type: physicochemical; conditions: Csurfactant = 0.01M; solutions at pH 3, 6, 9, 12 (FIG. 6)
Description: FIG. 6 is a pair of photos from the foaming test described in Example 2; the first photo (upper) is a photo of N-octanoyl cysteine solutions at: pH 3 (far left), pH 6 (middle left), pH 9 (middle right) and pH 12 (far right) and the second photo (lower) is a photo of N-octyl cysteine solutions at: pH 3 (far left), pH 6 (middle left), pH 9 (middle right) and pH 12 (far right). (Csurfactant=0.01M and the pH adjusted with […]).

[4] = cited from earlier work
[5] = Critical micelle concentration (CMC) from conductivity versus surfactant concentration; assay type: physicochemical
Experimental: The CMC of N-octanoyl-cys prepared by this method was determined to be 0.1M. The CMC was determined using a Bench-Top water quality meter, SPER SCIENTIFIC Instrument model 860033 to measure the conductivity and pH of the surfactant solution. The CMC value of the surfactant was measured by plotting conductivity values versus different surfactant concentrations at pH 9 by adding NaOH solution (0.1 mol L^−1) and 25.0° C. The CMC was obtained as the point of sharp transition in the slope of conductivity with increasing surfactant concentration (data not shown).
The CMC of the N-octanoyl-cys surfactant prepared by Exemplary method 1, in Na^+ form at pH 8, was determined (as reported above for Comparative method 1 above from measurements of the electrical conductivity with surfactant concentration) to be about 0.09 mol/L, see FIG. 3.
The same protocols as described above were used to determine the CMC and melting point of the twice-recrystallised N-octyl-cysteine surfactant. The values measured were 0.1M and 145° C., respectively. These values are consistent with literature values.

[6] = pH 12, Ccalcium = 5 mg L^−1, Csurfactant = 0.01M, air bubbles

CMC ([5]; twice-recrystallised surfactant, same protocols as for N-octanoyl-cys) [M] | Molecule | Adsorption (%) After 60 min ([1]; operating pH 12, 5 mg L^−1 Cd) [%] | Adsorption (%) After 60 min ([2]; pH 12, Ccalcium = 5 mg L^−1, Csurfactant = 0.01M) | C(mg L^−1) (RSD %) After 30 min [2, 6] | C(mg L^−1) (RSD %) After 60 min [2, 6] | pH at which the surfactant starts foaming (foaming point) [3] | pKa of the amine group (protonation) [4] | CMC ([5]; N-octanoyl-cys prepared by Comparative method 1, pH 9 (NaOH), 25.0° C.) [M] | CMC ([5]; prepared by Exemplary method 1, in Na+ form at pH 8) | Adsorption (%) After 60 min ([1]; operating pH 8, 5 mg L^−1 Cd, listed as N-octanoyl-cys (Comparative method 1)) [%] | Adsorption (%) After 60 min ([1]; operating pH 8, 5 mg L^−1 Cd, listed as N-octanoyl-cys (Exemplary method 1)) [%] | Adsorption (%) After 60 min ([2]; pH 8, Ccalcium = 5 mg L^−1, Csurfactant = 0.01M) | C(mg L^−1) (RSD %) After 30 min ([2]; pH 8, Ccalcium = 5 mg L^−1, Csurfactant = 0.01M, air bubbles) | pKa of the amide group (protonation) [4]
– | CCCCCCCCN[C@@H](CS)C(=O)O [N-octyl-cys, N-octyl-cysteine] | 14.2 | 14% and 14.6% | 4.89 (0.87) mg L^−1 | 4.27 (3.31) mg L^−1 | > 12 | about 10.7 | – | – | – | – | – | – | –
– | CCCCCCCC(=O)N[C@@H](CS)C(=O)O [N-octanoyl-cys, N-octanoyl-cysteine] | 12.3 | – | – | – | ~6 | – | 0.1 | about 0.09 mol/L | 99.2 | 99.8 | 97% and 97.3% | 0.72 (42.02) mg L^−1 | around −0.5
0.1 | N-octyl-cysteine [reference compound] | – | – | – | – | – | – | – | – | – | – | – | – | –
